{"source": "paper PMC5962653", "about": "(Frontiers in Microbiology, 2018)", "assay_type_in_all_cases": "cell-based, Klebsiella pneumoniae", "key": {"[1]": {"test_system": "K. pneumoniae Kp07, VIM-1 producer", "test": "MIC by broth microdilution (agar dilution for fosfomycin)", "settings": "for MIC: broth microdilution", "from_the_text": "(§1) Four genetically unrelated clinical isolates of CP-Kp were studied: Kp07, a VIM-1 ST 1603 clone producer ([Miro et al., 2013]); Kp21, which co-produced VIM-1 and the acquired AmpC type beta-lactamase DHA-1 ST 11 clone ([Miro et al., 2013]); Kp28, co-producing OXA-48 ST11 clone and the extended spectrum beta-lactamase (ESBL) CTX-M-15 ([Oteo et al., 2015]); and Kp29, co-producing KPC-3 ST512 clone with the broad spectrum beta-lactamases TEM-1 and SHV-11 ([Lopez-Cerero et al., 2014]), thereinafter VIM-1, VIM-1/DHA-1, OXA-48 plus CTX-M-15, and KPC-3 producers, respectively. Identification of these isolates was confirmed by a Microflex LT-MALDI Biotyper mass spectrometer (Bruker Daltonics GmbH, Bremen, Germany). The presence of carbapenemase genes, and genes coding for other beta-lactamases was confirmed by PCR and sequencing as described previously. The absence of genetic relation among the isolates was confirmed by PFGE analysis of chromosomal restriction fragments obtained after XbaI cleavage following the criteria of [Tenover et al. (1995)]. […] The antibiotic susceptibility profiles are included in the Supplementary Information.\n(§2) MICs of antibiotics were determined by broth microdilution as recommended by the [Clinical and Laboratory Standards Institute [CLSI] (2012)], using Mueller Hinton broth II (MHB) (Becton Dickinson & Co., Sparks, MD, United States) and agar dilution method for fosfomycin. MIC results were interpreted according to the [European Committee on Antimicrobial Susceptibility Testing [EUCAST] (2016)]^1 breakpoints. Studies were performed in triplicate."}, "[2]": {"test_system": "K. pneumoniae Kp21, VIM-1/DHA-1 producer", "test": "MIC by broth microdilution (agar dilution for fosfomycin)", "settings": "for MIC: broth microdilution", "from_the_text": "as §1, §2"}, "[3]": {"test_system": "K. pneumoniae Kp28, OXA-48 plus CTX-M-15 producer", "test": "MIC by broth microdilution (agar dilution for fosfomycin)", "settings": "for MIC: broth microdilution", "from_the_text": "as §1, §2"}, "[4]": {"test_system": "K. pneumoniae Kp29, KPC-3 producer", "test": "MIC by broth microdilution (agar dilution for fosfomycin)", "settings": "for MIC: broth microdilution", "from_the_text": "as §1, §2"}, "[5]": {"test_system": "K. pneumoniae KPC-3 producer", "settings": "colistin 2 mg/L (EUCAST breakpoint), rifampin 2 mg/L, alone or combined; inoculum 1 × 10^6 cfu/mL, 37°C, samples 0-24 h; three experiments", "procedure": "(§3) (2016)]. […] Tubes were incubated at 37°C, with shaking, and samples were taken at 0, 1, 3, 6, and 24 h, serially diluted and plated using a spiral platter (Eddy Jet, IUL S.A., Barcelona, Spain). Bacterial colonies were counted using an automatic counter (Flash & Go, IUL S.A., Barcelona, Spain) ([Pournaras et al., 2011]; [Souli et al., 2011]). Experiments were performed three times on separate occasions. […] Bactericidal activities of single antibiotics or combination were defined as a decrease ≥ 3 log10 cfu/mL from the starting inoculum ([Souli et al., 2009]). Studies were performed in triplicate.\n(§4) The RIF concentration used for all strains was 2 mg/L. RIF, filled circles; CST, filled squares; combination of both antimicrobials, filled triangles."}, "[6]": {"test_system": "K. pneumoniae OXA-48 plus CTX-M-15 producer", "settings": "at 24 h; colistin 0.5 mg/L", "procedure": "as §3, §4"}, "[7]": {"test_system": "K. pneumoniae VIM-1 producer", "procedure": "as §3, §4"}, "[8]": {"test_system": "K. pneumoniae VIM-1/DHA-1 producer", "settings": "colistin 2 mg/L (EUCAST breakpoint), rifampin 2 mg/L, alone or combined; inoculum 1 × 10^6 cfu/mL, 37°C, samples 0-24 h; three experiments", "procedure": "as §3, §4"}, "[9]": {"test_system": "K. pneumoniae OXA-48 plus CTX-M-15 producer (colistin-susceptible)", "test": "In vitro selection of colistin-resistant mutants (time-kill curves)", "settings": "exposure at the MIC (0.5 mg/L) during 24 h in time-kill curves; sub-cultured twice antimicrobial free; increased from 0.5 mg/L", "procedure": "(§5) MICs determinations of colistin and rifampin were carried out in triplicate."}, "[10]": {"test_system": "K. pneumoniae VIM-1 producer (colistin-susceptible)", "test": "In vitro selection of colistin-resistant mutants (time-kill curves)", "settings": "exposure at the MIC (0.5 mg/L) during 24 h in time-kill curves; sub-cultured twice antimicrobial free; increased from 0.5 mg/L", "procedure": "as §5"}, "[11]": {"settings": "Table 1, Mueller Hinton broth II, CLSI, triplicate"}}, "note": "Positions of bridges follow the written chain, without caps; N, C: chain ends. Non-standard residues stand in square brackets, D forms with d. Residues, ends and D or L forms follow the SMILES beside them. *: point of attachment. X1 = CC[C@H](C)CCCCC(=O)*; Dab = NCC[C@H](N)C(=O)O", "data": [{"smiles": "CC[C@H](C)CCCCC(=O)N[C@@H](CCN)C(=O)N[C@H](C(=O)N[C@@H](CCN)C(=O)N[C@H]1CCNC(=O)[C@H]([C@@H](C)O)NC(=O)[C@H](CCN)NC(=O)[C@H](CCN)NC(=O)[C@H](CC(C)C)NC(=O)[C@@H](CC(C)C)NC(=O)[C@H](CCN)NC1=O)[C@@H](C)O", "note": "[Colistin, colistin] (X1-[Dab]T[Dab][Dab][Dab][dL]L[Dab][Dab]T; lactam 4-C (inferred); N-terminus assumed)", "values": [{"measurement": "MIC", "setting": "[1]; [11]", "value": "0.5 [^∗] mg/L"}, {"measurement": "SIR, classification according to EUCAST definitions", "setting": "[1]; supplement table, strain KPc07, EUCAST 2016 breakpoints, fosfomycin by agar dilution", "value": "S"}, {"measurement": "MIC", "setting": "[1]; supplement table, strain KPc07", "value": 0.5, "unit": "mg/L"}, {"measurement": "MIC", "setting": "[2]; [11]", "value": "64 [^∗∗] mg/L"}, {"measurement": "SIR, classification according to EUCAST definitions", "setting": "[2]; supplement table, strain KPc21, EUCAST 2016 breakpoints, fosfomycin by agar dilution", "value": "R"}, {"measurement": "MIC", "setting": "[2]; supplement table, strain KPc21", "value": "> 32", "unit": "mg/L"}, {"measurement": "MIC", "setting": "[3]; [11]", "value": "0.5 [^∗] mg/L"}, {"measurement": "SIR, classification according to EUCAST definitions", "setting": "[3]; supplement table, strain KPc28, EUCAST 2016 breakpoints, fosfomycin by agar dilution", "value": "S"}, {"measurement": "MIC", "setting": "[3]; supplement table, strain KPc28", "value": 0.5, "unit": "mg/L"}, {"measurement": "MIC", "setting": "[4]; [11]", "value": "32 [^∗∗] mg/L"}, {"measurement": "SIR, classification according to EUCAST definitions", "setting": "[4]; supplement table, strain KPc29, EUCAST 2016 breakpoints, fosfomycin by agar dilution", "value": "R"}, {"measurement": "MIC", "setting": "[4]; supplement table, strain KPc29", "value": "> 32", "unit": "mg/L"}, {"measurement": "Bactericidal activity in time-kill curves (decrease ≥ 3 log10 cfu/mL from the starting inoculum)", "setting": "[5]", "value": "did not display any bactericidal activity"}, {"measurement": "Regrowth in time-kill curves", "setting": "[6]", "value": "important regrowth at 24 h"}, {"measurement": "Regrowth in time-kill curves", "setting": "[7]; at 24 h, colistin 0.5 mg/L", "value": "important regrowth at 24 h"}, {"measurement": "Bactericidal activity in time-kill curves (decrease ≥ 3 log10 cfu/mL from the starting inoculum)", "setting": "[7]; colistin 0.5 mg/L (MIC), rifampin 2 mg/L, alone or combined, inoculum 1 × 10^6 cfu/mL, 37°C, samples 0-24 h, three experiments", "value": "bactericidal at 3 h"}, {"measurement": "Bactericidal activity in time-kill curves (decrease ≥ 3 log10 cfu/mL from the starting inoculum)", "setting": "[8]", "value": "did not display any bactericidal activity"}, {"measurement": "Colistin MIC of colonies recovered after exposure to colistin", "setting": "[9]", "value": "> 8", "unit": "µg/mL"}, {"measurement": "Colistin MIC of colonies recovered after exposure to colistin", "setting": "[10]", "value": "> 8", "unit": "µg/mL"}]}]}
